Data reported in patent US11524966B1 (Valo Early Discovery, Inc., priority 2017, dated 2022).

These compounds were tested against T1, USP28 (His-tagged USP28-FL-mammalian) (Homo sapiens, UniProt Q96RU2) (assay: Ubiquitin-Rhodamine 110 Assay for USP28 Activity, Example A-1(a)). Conditions: Ubiquitin-Rhodamine 110 assay, Example A-1(a); read-out: USP28 A-1(a) IC50 range.
T1 construct: Expression of USP28 (1-1077)-TEV-6*His (pTT5 vector); made in house; host or cells: Expi293f cells (pTT5 vector)
T1 sequence (Q96RU2 1-1077): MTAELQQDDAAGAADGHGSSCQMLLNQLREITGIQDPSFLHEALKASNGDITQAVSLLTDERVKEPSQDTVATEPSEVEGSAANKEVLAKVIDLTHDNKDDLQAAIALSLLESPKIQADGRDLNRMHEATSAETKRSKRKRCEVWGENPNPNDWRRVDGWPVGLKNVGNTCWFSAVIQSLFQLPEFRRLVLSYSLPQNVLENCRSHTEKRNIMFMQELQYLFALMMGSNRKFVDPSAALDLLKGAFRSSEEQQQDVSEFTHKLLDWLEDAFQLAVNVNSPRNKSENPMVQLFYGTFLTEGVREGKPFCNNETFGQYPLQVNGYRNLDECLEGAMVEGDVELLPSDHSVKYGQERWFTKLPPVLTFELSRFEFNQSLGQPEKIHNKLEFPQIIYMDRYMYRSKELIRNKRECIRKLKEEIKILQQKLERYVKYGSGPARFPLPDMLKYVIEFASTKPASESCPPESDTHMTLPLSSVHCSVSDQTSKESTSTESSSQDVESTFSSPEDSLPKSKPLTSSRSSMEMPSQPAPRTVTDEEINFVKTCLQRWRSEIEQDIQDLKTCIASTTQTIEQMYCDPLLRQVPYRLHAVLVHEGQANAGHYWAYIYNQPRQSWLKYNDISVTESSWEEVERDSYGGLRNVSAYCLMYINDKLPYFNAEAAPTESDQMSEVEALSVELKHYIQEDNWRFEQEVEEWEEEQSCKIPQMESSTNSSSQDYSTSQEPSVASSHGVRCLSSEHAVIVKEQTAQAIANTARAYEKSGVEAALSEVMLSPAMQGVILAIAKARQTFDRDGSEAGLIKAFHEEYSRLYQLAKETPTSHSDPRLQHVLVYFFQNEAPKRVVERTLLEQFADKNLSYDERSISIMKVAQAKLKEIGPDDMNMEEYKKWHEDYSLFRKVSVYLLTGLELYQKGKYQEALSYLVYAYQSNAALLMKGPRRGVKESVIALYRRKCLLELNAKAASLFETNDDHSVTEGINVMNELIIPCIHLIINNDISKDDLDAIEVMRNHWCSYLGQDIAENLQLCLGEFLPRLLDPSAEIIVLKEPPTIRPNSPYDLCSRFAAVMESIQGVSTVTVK
Assay type: biochemical
How it was run: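 IC50 from 4-parameter logistic fit of percent inhibition versus no-enzyme and DMSO controls; compounds 25 μM to 1.3 nM, 3-fold. Ub-Rh110 cleavage (25 nM, below Km) by […] mammalian-expressed USP28-FL-His ran 45 min at room temperature, stopped with 10 mM citric acid, read ex 485/em 535.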

SMILES	IC50 [nM]
CO[C@H]1CN(c2cc3c(cc2C#N)C[C@@H](NC(=O)c2sc4nc(C)ccc4c2N)CC3)C[C@@H]1N [Example 201, 3-amino-N-[(2S)-6-[(3S,4S)-3-amino-4-methoxypyrrolidin-1-yl]-7-cyano-1,2,3,4-tetrahydronaphthalen-2-yl]-6-methylthieno[2,3-b]pyridine-2-carboxamide]	1 to 50
Cc1ccc2c(N)c(C(=O)N[C@H]3COc4cc(N5C[C@H](OC(C)C)[C@@H](N)C5)ccc4C3)sc2n1 [Example 202, 3-amino-N-[(3R)-7-[(3S,4S)-3-amino-4-(propan-2-yloxy)pyrrolidin-1-yl]-3,4-dihydro-2H-1-benzopyran-3-yl]6-methylthieno[2,3-b]pyridine-2-carboxamide]	1 to 50
CO[C@H]1CN(c2ccc3c(n2)CC[C@H](NC(=O)c2sc4nc(C)c(F)cc4c2N)C3)C[C@@H]1N [Example 203, 3-amino-N-[(6S)-2-[(3S,4S)-3-amino-4-methoxypyrrolidin-1-yl]-5,6,7,8-tetrahydroquinolin-6-yl}-5-fluoro-6-methylthieno[2,3-b]pyridine-2-carboxamide]	50 to 200
Cc1nc2sc(C(=O)N[C@H]3CCc4nc(N5CCNCC5)ccc4C3)c(N)c2cc1F [Example 204, 3-amino-5-fluoro-6-methyl-N-[(6S)-2-(piperazin-1-yl)-5,6,7,8-tetrahydroquinolin-6-yl]thieno[2,3-b]pyridine-2-carboxamide]	1 to 50
Cc1ccc2c(N)c(C(=O)N[C@H]3Cc4ccc(N5CCNCC5)nc4[C@@H](C)C3)sc2n1 [Example 206, 3-amino-6-methyl-N-[(6R,8S)-8-methyl-2-(piperazin-1-yl)-5,6,7,8-tetrahydroquinolin-6-yl]thieno[2,3-b]pyridine-2-carboxamide]	50 to 200
Cc1ccc2c(N)c(C(=O)N[C@@H]3Cc4ccc(N5CCNCC5)nc4[C@H](C)C3)sc2n1 [Example 207, 3-amino-6-methyl-N-[(6S,8R)-8-methyl-2-(piperazin-1-yl)-5,6,7,8-tetrahydroquinolin-6-yl]thieno[2,3-b]pyridine-2-carboxamide]	200 to 2000
Cc1ccc2c(N)c(C(=O)N[C@H]3Cc4ccc(N5CCNCC5)nc4[C@H](C)C3)sc2n1 [Example 208, 3-amino-6-methyl-N-[(6R,8R)-8-methyl-2-(piperazin-1-yl)-5,6,7,8-tetrahydroquinolin-6-yl]thieno[2,3-b]pyridine-2-carboxamide]	1 to 50
Cc1ccc2c(N)c(C(=O)N[C@H]3COc4cc(N5C6CNCC5COC6)ccc4C3)sc2n1 [Example 209, 3-amino-6-methyl-N-[(3R)-7-{3-oxa-7,9-diazabicyclo[3.3.1]nonan-9-yl}-3,4-dihydro-2H-1-benzopyran-3-yl]thieno[2,3-b]pyridine-2-carboxamide]	1 to 50
CO[C@@]1(C)CN(c2ccc3c(n2)CC[C@H](NC(=O)c2sc4nc(C)ccc4c2N)C3)C[C@@H]1N [Example 210, 3-amino-N-[(6S)-2-[(3S,4S)-4-amino-3-methoxy-3-methylpyrrolidin-1-yl]-5,6,7,8-tetrahydroquinolin-6-yl]-6-methylthieno[2,3-b]pyridine-2-carboxamide]	50 to 200
CO[C@]1(C)CN(c2ccc3c(n2)CC[C@H](NC(=O)c2sc4nc(C)ccc4c2N)C3)C[C@H]1N [Example 211, 3-amino-N-[(6S)-2-[(3R,4R)-4-amino-3-methoxy-3-methylpyrrolidin-1-yl]-5,6,7,8-tetrahydroquinolin-6-yl]-6-methylthieno[2,3-b]pyridine-2-carboxamide]	50 to 200
CN[C@H]1CN(c2ccc3c(c2)OC[C@H](NC(=O)c2sc4nc(C)ccc4c2N)C3)C[C@@H]1OC [Example 212, 3-amino-N-[(3R)-7-[(3S,4S)-3-methoxy-4-(methylamino)pyrrolidin-1-yl]-3,4-dihydro-2H-1-benzopyran-3-yl]-6-methylthieno[2,3-b]pyridine-2-carboxamide]	1 to 50
CO[C@H]1CN(c2ccc3c(c2)OC[C@H](NC(=O)c2sc4nc(C)ccc4c2N)C3)C[C@@H]1NC(C)=O [Example 213, 3-amino-N-[(3R)-7-[(3S,4S)-3-acetamido-4-methoxypyrrolidin-1-yl]-3,4-dihydro-2H-1-benzopyran-3-yl]-6-methylthieno[2,3-b]pyridine-2-carboxamide]	50 to 200
Cc1ccc2c(N)c(C(=O)N[C@H]3COc4cc(N5C[C@H](N)C(C)(C)C5)ccc4C3)sc2n1 [Example 214, 3-amino-N-[(3R)-7-[(4R)-4-amino-3,3-dimethylpyrrolidin-1-yl]-3,4-dihydro-2H-1-benzopyran-3-yl]-6-methylthieno[2,3-b]pyridine-2-carboxamide]	1 to 50
Cc1ccc2c(N)c(C(=O)N[C@H]3COc4cc(N5C[C@@H](N)C(C)(C)C5)ccc4C3)sc2n1 [Example 215, 3-amino-N-[(3R)-7-[(4S)-4-amino-3,3-dimethylpyrrolidin-1-yl]-3,4-dihydro-2H-1-benzopyran-3-yl]-6-methylthieno[2,3-b]pyridine-2-carboxamide]	1 to 50
Cc1ccc2c(N)c(C(=O)N[C@H]3CCc4nc(N5CC[C@H]6CNC[C@H]65)ccc4C3)sc2n1 [Example 216, N-[(6S)-2-[(3aS,6aS)-octahydropyrrolo[2,3-c]pyrrol-1-yl}-5,6,7,8-tetrahydroquinolin-6-yl]-3-amino-6-methylthieno[2,3-b]pyridine-2-carboxamide]	1 to 50
Cc1ccc2c(N)c(C(=O)N[C@H]3CCc4nc(N5CC[C@@H]6CNC[C@@H]65)ccc4C3)sc2n1 [Example 217, N-[(6S)-2-[(3aR,6aR)-octahydropyrrolo[2,3-c]pyrrol-1-yl]-5,6,7,8-tetrahydroquinolin-6-yl]-3-amino-6-methylthieno[2,3-b]pyridine-2-carboxamide]	1 to 50
Cc1cc(C)c2c(N)c(C(=O)N[C@H]3CCc4nc(N5CC[C@H]6CNC[C@H]65)ccc4C3)sc2n1 [Example 218, N-[(6S)-2-[(3aS 6aS)-octahydropyrrolo[2,3-c]pyrrol-1-yl]-5,6,7,8-tetrahydroquinolin-6-yl]-3-amino-4,6-dimethylthieno[2,3-b]pyridine-2-carboxamide]	50 to 200
Cc1cc(C)c2c(N)c(C(=O)N[C@H]3CCc4nc(N5CC[C@@H]6CNC[C@@H]65)ccc4C3)sc2n1 [Example 219, N-[(6S)-2-[(3aR,6aR)-octahydropyrrolo[2,3-c]pyrrol-1-yl]-5,6,7,8-tetrahydroquinolin-6-yl]-3-amino-4,6-dimethylthieno[2,3-b]pyridine-2-carboxamide]	1 to 50
Cc1ccc2c(N)c(C(=O)N[C@H]3COc4cc(N5CC[C@H]6CNC[C@H]65)cc(F)c4C3)sc2n1 [Example 220, N-[(3R)-7-[(3aS,6aS)-octahydropyrrolo[2,3-c]pyrrol-1-yl]-5-fluoro-3,4-dihydro-2H-1-benzopyran-3-yl]-3-amino-6-methylthieno[2,3-b]pyridine-2-carboxamide]	1 to 50
Cc1ccc2c(N)c(C(=O)N[C@H]3COc4cc(N5CC[C@@H]6CNC[C@@H]65)cc(F)c4C3)sc2n1 [Example 221, N-[(3R)-7-[(3aR,6aR)-octahydropyrrolo[2,3-c]pyrrol-1-yl]-5-fluoro-3,4-dihydro-2H-1-benzopyran-3-yl]-3-amino-6-methylthieno[2,3-b]pyridine-2-carboxamide]	1 to 50
Cc1ccc2c(N)c(C(=O)N[C@H]3COc4cc(N5CC[C@H]6CCNC[C@H]65)ccc4C3)sc2n1 [Example 224, N-[(3R)-7-[(3aR,7aS)-octahydro-1H-pyrrolo[2,3-c]pyridin-1-yl]-3,4-dihydro-2H-1-benzopyran-3-yl]-3-amino-6-methylthieno[2,3-b]pyridine-2-carboxamide]	1 to 50
Cc1ccc2c(N)c(C(=O)N[C@H]3COc4cc(N5CC[C@@H]6CCNC[C@@H]65)ccc4C3)sc2n1 [Example 225]	1 to 50
Cc1cc(C)c2c(N)c(C(=O)N[C@H]3COc4cc(N5CC[C@H]6CNC[C@H]65)ccc4C3)sc2n1 [Example 226, N-[(3R)-7-[(3aS,6aS)-octahydropyrrolo[2,3-c]pyrrol-1-yl]-3,4-dihydro-2H-1-benzopyran-3-yl]-3-amino-4,6-dimethylthieno[2,3-b]pyridine-2-carboxamide]	1 to 50
